The source of these data is US20240343726A1, “PYRROLOPYRIDINE-3- AND 4-CARBOXAMIDE COMPOSITIONS AND METHODS FOR CELLULAR PROLIFERATION” (The Rockefeller University, priority 2021, published 2024).

Where two headings read alike, the source gives them in different places.

Test [1] deals with Yap. Description: Yap nuclear translocation in supporting cells of cultured utricles (immunohistochemical analysis). The test is classed as cell-based, mice. As to conditions: 10 μM, 24 hr of treatment, control=0.6.
The subject of test [2] is adult utricular supporting cells. Briefly: EdU proliferation assay in cultured adult utricles. Format: cell-based, mice. The settings on record: 5 days of treatment, control=20. The procedure: was tested in vitro to explore its mechanism of action and its utility in regenerating hair cells of the ear. The effects of the compounds were tested on utricles isolated from mice eight to twelve weeks of age. Internal ears were dissected from mice euthanized with fluothane and placed into ice-cold Hank's balanced salt solution, and cultured as previously described by Gnedeva, K. & Hudspeth [Proc. Natl. Acad Sci. 112, 14066-14071 (2015)]. For proliferation assays, utricles were cultured with 10 μM 5-ethynyl-2′-deoxyuridine (EdU) that was detected with click chemistry.
After 5 days of treatment, the N-benzyl thiazole evoked robust re-entry into the cell cycle of adult utricular supporting cells, yielding hundreds of EdU+daughter supporting cells (control=20 EdU+ supporting cells; the N-benzyl thiazole-treated=250 EdU+supporting cells; p=0.021 by an unpaired, one-tailed 1-test, control n=2, TO1 n=3).

Test [3] concerns phosphorylation of YAP. Briefly: pYAP HTRF Assay (HEK 293A Cells). Format: cell-based. The settings on record: HEK293-A, inhibitory activity of phosphorylation of YAP, read-out: LATS1_ICKA_HEK293A IC50. The procedure: Use 3× dilution scheme in DMSO through column 10, lastly diluting further by 10× into column 11. Add 100% DMSO in serum-free and complete medium in columns 1 and 12 as a positive and negative control, respectively. To achieve a dilution of 1:500, use two 0.8 ml 96-well deep-well plates (ThermoFisher AB0765) pre-filled with the medium as intermediate (1:20) and final dilution plate (1:25). (Transfer row-wise) • Flick the cell plate carefully, three to four times or until all wells are clear of any residual liquid. Dispense 50 μL of the compound in medium into respective wells row-wise, incubate at 37° C. for 30 min • After a 30-minute incubation, flick the cell plate carefully, three to four times or until all wells are clear of any residual liquid. Dilute stock Lysis Buffer #4 (4×) in deionized water, complemented with blocking solution, the stock of which is 100×*. Add 75 μL 1× lysis buffer+blocking reagent mix into each well. Mix plate on a shaker for 30 min at room temperature • Dilute stock solution of total/phospho-YAP Eu cryptate & d2 antibody (each) in the ratio of 1:20 with detection buffer. Mix antibody solutions Eu3+ cryptate and d2 (each for total-Yap and phospho-YAP) in the ratio of 1:1*. Transfer 4 μL of the antibody mixture into two separate small-volume 384-well plates assigned for total-YAP and phospho-YAP. Give a short spin to the plates in a benchtop centrifuge set at 1000 rpm for 30 seconds • Row-wise, homogenize the lysate gently by pipetting it up and down, swirling the tip in the well to help scrape off any adherent cells (avoid bubble formation). Row-wise transfer 16 μL cell lysate into the low-volume 384-well plates with 4 μL total-YAP or phospho-YAP antibody reaction mix for a final volume of 20 μL. Spin down the plates in a benchtop centrifuge set at 1000 rpm for 30 seconds • Seal the plates using a vacuum sealer, incubate overnight at room temperature in the dark on a shaker; read the next day • Use a fluorescence emission read using compatible HTRF® reader—BioTek Synergy NEO. […] Included in Cisbio HTRF YAP total kit (#64YATPEH) & YAP phospho-S127 kit (#64YAPPEH).

Test [4] addresses LATS1 kinase (Homo sapiens (Human), UniProt O95835). Briefly: LATS1 Biochemical HTRF Assay. The procedure: LATS1 Biochemical HTRF Assay
MgCl2 and [1 mM] DTT. 1× Enzymatic buffer diluted from 5× Enzymatic buffer*. Add 0.5 μL of 20× compound in 100% DMSO. […] MgCl2, [1 mM] DTIT and [5 mg/mL] BSA. 5×ERR prepared from 5× Enzymatic buffer with [25 mg/mL] BSA. Mix plate on plate shaker set at 1,350 rpm for 30 seconds, then centrifuge plate at 1,000 rpm for 1 minute. Incubate for 30 minutes at 25° C. on plate shaker set to 500 rpm. […] STK Substrate 1-biotin* then add 2 μL [10 mM] ATP. Mix plate on plate shaker set at 1,350 rpm for 30 seconds, then centrifuge plate at 1,000 rpm for 1 minute. Incubate for 40 minutes at 25° C. on plate shaker set to 500 rpm. […] Streptavidin-XL665 with 1×STK Antibody-Cryptate*. Mix plate on plate shaker set at 1,350 rpm for 30 seconds, then centrifuge plate at 1,000 rpm for 1 minute. Incubate for 60 minutes at 25° C. on plate shaker set to 500 rpm, covered from light.
*(Included in Cisbio KinEASE-STK Si HTRF Kit: 62ST1PEC)

The mark [5] stands for this setting: 2 mM ATP, read-out: LATS1_HTRF_2 mM ATP IC50.

LATS1 kinase, sequence (O95835 589-1130): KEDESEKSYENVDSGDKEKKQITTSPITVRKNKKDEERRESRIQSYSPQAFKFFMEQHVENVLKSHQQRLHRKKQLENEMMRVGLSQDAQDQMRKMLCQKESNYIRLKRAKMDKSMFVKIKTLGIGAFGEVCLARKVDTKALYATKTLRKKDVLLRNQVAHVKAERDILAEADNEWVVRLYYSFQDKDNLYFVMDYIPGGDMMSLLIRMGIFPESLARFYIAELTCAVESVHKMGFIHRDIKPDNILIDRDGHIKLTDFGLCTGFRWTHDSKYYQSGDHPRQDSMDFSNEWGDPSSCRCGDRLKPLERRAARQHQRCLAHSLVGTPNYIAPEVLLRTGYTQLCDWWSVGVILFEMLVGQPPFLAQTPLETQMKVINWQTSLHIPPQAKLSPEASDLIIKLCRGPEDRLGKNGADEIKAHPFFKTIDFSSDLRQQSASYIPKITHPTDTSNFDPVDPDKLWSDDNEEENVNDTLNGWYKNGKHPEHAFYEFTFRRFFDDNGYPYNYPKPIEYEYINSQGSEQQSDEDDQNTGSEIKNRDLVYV

For `O=C(/N=c1\sccn1Cc1ccccc1)c1c[nH]c2ncccc12`, the “Yap nuclear translocation, quantified as a ratio to the constitutively expressed protein Sall2” value in test [1] turned out to be 1.0. The “EdU+ supporting cells (re-entry into the cell cycle)” value in test [2] amounted to 250.
Consider `O=C(/N=C1\SCCN1Cc1ccccc1)c1c[nH]c2ncccc12` [Example 1, (Z)—N-(3-benzylthiazolidin-2-ylidene)-1H-pyrrolo[2,3-b]pyridine-3-carboxamide], for which the IC50 in test [3] was determined as 19.7 nM; in test [4] (setting [5]), 11.2 nM.
On the same counts, the results for `O=C(/N=C1\SCCN1c1ccccc1)c1c[nH]c2ncccc12` [Example 2] are 23 nM and 0.829 nM.
The corresponding values for `O=C(/N=C1\SCCN1c1ccccc1Cl)c1c[nH]c2ncccc12` [Example 3] are 5.15 nM and 0.297 nM.
On the same counts, the results for `CCc1ccccc1N1CCS/C1=N\C(=O)c1c[nH]c2ncccc12` [Example 4] are 205 nM and 4.2 nM.
Regarding `COc1ccccc1N1CCS/C1=N\C(=O)c1c[nH]c2ncccc12` [Example 5], the IC50 in test [3] was 1700 nM.
Turning to `O=C(/N=C1\SCCN1c1ccccc1O)c1c[nH]c2ncccc12` [Example 6], the IC50 was determined as 1.3 nM in test [3] and 0.59 nM in test [4] (setting [5]).
On to `COc1ccc(N2CCS/C2=N\C(=O)c2c[nH]c3ncccc23)cc1` [Example 7], for which the IC50 in test [3] was 1850 nM.
Take `O=C(/N=C1\SCCN1c1ccc(O)cc1)c1c[nH]c2ncccc12` [Example 8]: the IC50 was 687 nM in test [3] and 13 nM in test [4] (setting [5]).
For `COc1cccc(N2CCS/C2=N\C(=O)c2c[nH]c3ncccc23)c1` [Example 9], the IC50 in test [3] amounted to 1740 nM.
Consider `O=C(/N=C1\SCCN1c1cccc(O)c1)c1c[nH]c2ncccc12` [Example 10], for which the IC50 in test [3] is 39.2 nM; in test [4] (setting [5]) it was 1.6 nM.
The corresponding values for `O=C(/N=C1\SCCN1C1CCCCC1)c1c[nH]c2ncccc12` [Example 11] are 53 nM and 1.1 nM.
Regarding `CC1(C)CS/C(=N\C(=O)c2c[nH]c3ncccc23)N1C1CCCCC1` [Example 12], the results for the half-maximal inhibitory concentration (IC50) in test [3] and in test [4] were 37 nM and 1.1 nM, respectively.
In the case of `O=C(/N=C1\SCC(CO)N1c1ccccc1)c1c[nH]c2ncccc12` (centres unmarked) [Example 13, (Z)—N-(4-(hydroxymethyl)-3-phenylthiazolidin-2-ylidene)-1H-pyrrolo[2,3-b]pyridine-3-carboxamide], the half-maximal inhibitory concentration (IC50) was 45 nM in test [3] and 0.44 nM in test [4] (setting [5]).
The corresponding values for `CN(C)CC1CS/C(=N\C(=O)c2c[nH]c3ncccc23)N1c1ccccc1` (centres unmarked) [Example 14, (Z)—N-(4-((dimethylamino)methyl)-3-phenylthiazolidin-2-ylidene)-1H-pyrrolo[2,3-b]pyridine-3-carboxamide] are 71 nM and 4.1 nM.
In the case of `O=C(/N=C1\SCCN1c1ccccc1Cl)c1ccnc2[nH]ccc12` [Example 17], the IC50 in test [3] worked out at 1480 nM; in test [4] (setting [5]) it was 82 nM.
For the compound `CC(O)CN1CCS/C1=N\C(=O)c1c[nH]c2ncccc12` (centres unmarked) [Example 19, (Z)—N-(3-(2-hydroxypropyl)thiazolidin-2-ylidene)-1H-pyrrolo[2,3-b]pyridine-3-carboxamide], the IC50 was determined as 1720 nM in test [3] and 210 nM in test [4] (setting [5]).
Take `O=C(/N=C1\SCCCN1Cc1ccccc1)c1c[nH]c2ncccc12` [Example 25]: the IC50 in test [3] came out at 77 nM; in test [4] (setting [5]), 2.5 nM.
Take `O=C(/N=C1\SCCCN1c1ccccc1)c1c[nH]c2ncccc12` [Example 26]: the IC50 in test [3] was 69 nM.
For the compound `O=C(/N=C1\SCCCN1c1ccccc1Cl)c1ccnc2[nH]ccc12` [Example 27], the IC50 in test [3] turned out to be 5560 nM; in test [4] (setting [5]), 200 nM.
`O=C(/N=C1\SCCCN1c1ccccc1Cl)c1c[nH]c2ncccc12` [Example 28]: the IC50 was found to be 109 nM in test [3] and 1.6 nM in test [4] (setting [5]).
Regarding `O=C(/N=C1\SCCCN1C1CCCCC1)c1c[nH]c2ncccc12` [Example 30], the IC50 in test [3] was 39 nM; in test [4] (setting [5]), 2.9 nM.
Regarding `CNC(=O)C1CS/C(=N\C(=O)c2c[nH]c3ncccc23)N(c2ccccc2)C1` (centres unmarked) [Example 34, (Z)-2-((1H-pyrrolo[2,3-b]pyridine-3-carbonyl)imino)-N-methyl-3-phenyl-1,3-thiazinane-5-carboxamide], the IC50 in test [3] came out at 1710 nM; in test [4] (setting [5]) it was 23 nM.
For the compound `O=C(/N=C1\SCC(CO)CN1c1ccccc1)c1c[nH]c2ncccc12` (centres unmarked) [Example 35, (Z)—N-(5-(hydroxymethyl)-3-phenyl-1,3-thiazinan-2-ylidene)-1H-pyrrolo[2,3-b]pyridine-3-carboxamide], the IC50 in test [3] turned out to be 392 nM; in test [4] (setting [5]), 3.9 nM.
`O=C(/N=c1\sccn1-c1ccccc1Cl)c1ccnc2[nH]ccc12` [Example 41]: the IC50 in test [3] came to 4.75 nM.
For the compound `CNC(=O)c1cs/c(=N\C(=O)c2ccnc3[nH]ccc23)n1-c1ccccc1Cl` [Example 58], the IC50 stood at 527 nM in test [3] and 48 nM in test [4] (setting [5]).
The corresponding values for `CN(C)Cc1cs/c(=N\C(=O)c2c[nH]c3ncccc23)n1Cc1ccccc1` [Example 65, (Z)—N-(3-benzyl-4-((dimethylamino)methyl)thiazol-2(3H)-ylidene)-1H-pyrrolo[2,3-b]pyridine-3-carboxamide] are 640 nM and 15 nM.
The corresponding values for `CN(C)Cc1cs/c(=N\C(=O)c2c[nH]c3ncccc23)n1-c1ccccc1Cl` [Example 66, (Z)—N-(3-(2-chlorophenyl)-4-((dimethylamino)methyl)thiazol-2(3H)-ylidene)-1H-pyrrolo[2,3-b]pyridine-3-carboxamide] are 327 nM and 1.3 nM.
On the same counts, the results for `O=C(/N=c1\scc(CN2CCOCC2)n1-c1ccccc1Cl)c1c[nH]c2ncccc12` [Example 67] are 147 nM and 1.1 nM.
Consider `COCCN(C)Cc1cs/c(=N\C(=O)c2c[nH]c3ncccc23)n1-c1ccccc1Cl` [Example 68], for which the IC50 in test [3] was 270 nM; in test [4] (setting [5]), 2.8 nM.
With `CN(C)Cc1cs/c(=N\C(=O)c2c[nH]c3ncccc23)n1C1CCCCC1` [Example 69], the IC50 worked out at 68 nM in test [3] and 1.8 nM in test [4] (setting [5]).
In the case of `O=C(/N=C1\SCCN1c1ccccc1)n1ccc2ncccc21` [Example 84], the half-inhibitory concentration (IC50) in test [3] came out at 2290 nM.
The same measure, in the same setting: in the case of `O=C(/N=c1\sccn1-c1ccccc1Cl)n1ccc2ncccc21` [Example 85] it was 31600 nM.
